Source: patent publication US20110054039A1, “USE OF ALKYL SULFATES OR SULFONATES AGAINST PROPIONIBACTERIUM ACNES” (priority 2008, published 2011)
Like-named read-outs stand apart in the source and are kept apart here.

Columns and labels:
Assay type in all cases: cell-based
[1] = tested on: Propionibacterium acnes NCTC 737; test: Supplemented Disc Diffusion Assay (agar with salt or lipid); conditions: P. acnes NCTC 737, 200 μg per disc; for zone of inhibition at 200 µg/disc: Cutibacterium acnes, NCTC737, 72 h
Protocol: (§1) The test micro-organism represented the cutaneous propionibacteria. […] The propionibacteria are clinically significant due to their involvement in acne. This is a very common, complex and multi-factorial skin disease in which P. acnes and other Propionibacterium spp. […] They are also opportunistic pathogens in compromised hosts.
(§2) The propionibacteria were cultured and maintained on Wilkins-Chalgren Anaerobe Medium (agar and broth) at pH 6.0; all cultures were incubated anaerobically at 37° C. for 72 hours.
(§3) A sterile paper disc was impregnated with a sample of the test compound in a suitable solvent and 30 minutes allowed for the solvents to evaporate (where possible). The disc was then placed on an agar plate onto which the test micro-organism had been inoculated. The plate was then incubated under the conditions described above, following which it was examined visually for signs of microbial growth. […] The diameter of this zone of ‘inhibition’ was measured using a ProtoCOL™ automated zone sizer (Synbiosis, Cambridge, UK).
Performance under these conditions can provide a more reliable indication of activity on topical application.
(§4) MIC, MBC and DDA assays, as described above, were carried out using as the test compound sodium n-tetradecyl sulphate (STS, ex Sigma Aldrich, UK), dissolved in distilled water. All the experiments were conducted in triplicate. For the DDA experiments, 200 μg of the test compound was loaded onto each disc.
(§5) The MIC/MBC experiments were conducted in triplicate, with the exception of those for SDS and ADS which were conducted in duplicate. The DDAs were performed either in triplicate, in which case standard deviations are quoted in parentheses, or as a single replicate. For the DDA experiments, 200 μg of the test compound was loaded onto each disc.

[2] = tested on: Propionibacterium acnes NCTC 737; test: Minimum Inhibitory Concentration (MIC) assay, broth microdilution; conditions: for MIC: P. acnes NCTC 737, Wilkins-Chalgren broth pH 6.0, anaerobic, 37° C., 72 hours
Protocol: as §1, §2
This is a standard international method for quantitatively assessing the antimicrobial activity of a compound in a liquid medium. […] The culture media were as described above.
The wells were inoculated with a liquid suspension of freshly grown micro-organism and incubated under the conditions described above. After incubation, the microtitre plate was examined visually (with the aid of a light box) for cloudiness in each well, which would indicate microbial growth. The MIC value was recorded as the lowest concentration of test compound required to inhibit microbial growth, ie the lowest concentration for which the liquid in the well remained clear.
The assays included both negative (culture medium with no micro-organisms) and positive (culture medium plus diluting solvent plus micro-organism) controls.
as §4, §5

[3] = tested on: Propionibacterium acnes NCTC 737; test: Disc Diffusion Assay (DDA); conditions: P. acnes NCTC 737, 200 μg of test compound per disc; for zone of inhibition at 200 µg/disc: Cutibacterium acnes, NCTC737, read-out: DDA (diameter of zone of inhibition)
Protocol: as §1, §2
This is an internationally recognised standard method for qualitatively assessing the antimicrobial activity of a compound.
as §3, §4, §5

[4] = tested on: Propionibacterium acnes NCTC 737; test: Minimum Biocidal (Bactericidal) Concentration (MBC) assay; conditions: P. acnes NCTC 737; for MBC: sub-culture on antibiotic-free agar after MIC assay
Protocol: as §1, §2
This assay, normally carried out after an MIC assay, determines the minimum concentration of a compound that is lethal to the micro-organism being tested.
These samples were then individually sub-cultured on antibiotic-free agar medium, under the incubation conditions described above. Following incubation they were examined visually for microbial growth.
as §4, §5

[5] = agar supplemented with sodium chloride (100 mM), read-out: DDA + salt
[6] = agar supplemented with triolein at 1% v/v, read-out: DDA + lipid
[7] = Cutibacterium acnes, NCTC737, read-out: MIC
[8] = Cutibacterium acnes, NCTC737, read-out: MBC
[9] = agar supplemented with sodium chloride (100 mM)
[10] = agar supplemented with triolein at 1% v/v

Row | Molecule | MIC [2, 7] [µg/mL] | zone of inhibition at 200 µg/disc [1, 5] [mm] | zone of inhibition at 200 µg/disc [1, 6] [mm] | DDA + salt ([1]; agar supplemented with sodium chloride (100 mM), sulphate) [mm] | DDA + lipid ([1]; agar supplemented with triolein at 1% v/v, sulphate) [mm] | antibacterial activity against P. acnes NCTC 737 (in words) ([2]; summary of MIC, MBC and DDA results) | zone of inhibition at 200 µg/disc [3] [mm] | DDA (diameter of zone of inhibition) ([3]; sulphate) [mm] | MBC [4, 8] [µg/mL] | MIC/MBC ratio [4] | DDA + salt [1, 9] [mm] | DDA + lipid [1, 10] [mm] | MIC [2] [µg/mL] | DDA (diameter of zone of inhibition) [3] [mm] | MBC [4] [µg/mL]
1 | CCCCCCCCOS(=O)(=O)[O-].[Na+] [Sodium octyl sulphate, sodium octyl sulphate] | > 250 | 0 | 0 | – | – | – | 0 | – | > 250 | – | – | – | – | – | –
2 | CCCCCS(=O)(=O)[O-].[Na+] [Sodium pentane sulphonate, sodium pentane sulphonate] | > 250 | 0 | 0 | – | – | – | 0 | – | > 250 | – | – | – | – | – | –
3 | CCCCCCCOS(=O)(=O)[O-].[Na+] [Sodium-n-heptyl sulphate, sodium-n-heptyl sulphate] | > 250 | 0 | 0 | – | – | – | 0 | – | > 250 | – | – | – | – | – | –
4 | CCCCCCCCCCCCOS(=O)(=O)O.NC(CO)(CO)CO [Trizma ® dodecyl sulphate, Trizma® (2-amino-2-(hydroxymethyl)-1,3-propanediol, alsoknownas ‘Tris’) dodecyl sulphate] | – | – | – | – | – | – | – | – | – | 0.5 | 0.00 | 0.00 | 31.25 | 0.00 | 62.5
5 | triethanolamine lauryl sulphate [Triethanolamine dodecyl sulphate] | – | – | – | – | – | – | – | – | – | 0.25 | 28.33 | 25.53 | 3.9 | 30.19 | 15.6

Second part, led by results:

Row | MIC [2, 7] [µg/mL] | Molecule | zone of inhibition at 200 µg/disc [1, 5] [mm] | zone of inhibition at 200 µg/disc [1, 6] [mm] | DDA + salt ([1]; agar supplemented with sodium chloride (100 mM), sulphate) [mm] | DDA + lipid ([1]; agar supplemented with triolein at 1% v/v, sulphate) [mm] | antibacterial activity against P. acnes NCTC 737 (in words) ([2]; summary of MIC, MBC and DDA results) | zone of inhibition at 200 µg/disc [3] [mm] | DDA (diameter of zone of inhibition) ([3]; sulphate) [mm] | MBC [4, 8] [µg/mL] | MIC/MBC ratio [4] | DDA + salt [1, 9] [mm] | DDA + lipid [1, 10] [mm] | MIC [2] [µg/mL] | DDA (diameter of zone of inhibition) [3] [mm] | MBC [4] [µg/mL]
6 | 0.98 | CCCCCCCCCCCCCCOS(=O)(=O)O [Sodium n-tetradecyl sulphate, sodium n-tetradecyl sulphate] | 31.6 | 33.7 | 31.62 | 33.67 | highly active | 29.9 | 29.87 | 0.98 | 1 | – | – | – | – | –
7 | 31.2 | CCCCCCCCCCCOS(=O)(=O)[O-].[Na+] [Sodium n-undecyl sulphate, sodium n-undecyl sulphate] | 19.9 | 17.7 | – | – | – | 17.3 | – | 62.5 | 0.5 | – | – | – | – | –
8 | 1.95 | CCCCCCCCCCCCCCCCCCOS(=O)(=O)[O-].[Na+] [Sodium octadecyl sulphate, sodium octadecyl sulphate] | 9.3 | 9.92 | – | – | – | 9.41 | – | 62.5 | 0.03 | – | – | – | – | –
9 | 7.8 | CCCCCCCCCCCCCOS(=O)(=O)[O-].[Na+] [Sodium tridecyl sulphate, sodium tridecyl sulphate] | 33.3 | 31.8 | – | – | – | 32.2 | – | 7.8 | 1 | – | – | – | – | –
